The CheMixHub viscosity set

Assay: xn = mol fraction of the nth substance listed

ClC(Cl)=C(Cl)Cl + O=[N+]([O-])c1ccccc1
303.15 K, 101 kPa
Details | viscosity [mPa·s]
x1 = 0.1516 | 1.446
x1 = 0.2128 | 1.376
x1 = 0.2966 | 1.288
x1 = 0.3642 | 1.221
x1 = 0.4582 | 1.144
x1 = 0.5496 | 1.074
x1 = 0.6451 | 1.012
x1 = 0.7624 | 0.941
x1 = 0.8428 | 0.896
x1 = 0.9206 | 0.856

O=C[C@H](O)[C@@H](O)[C@H](O[C@@H]1O[C@H](CO)[C@H](O)[C@H](O)[C@H]1O)[C@H](O)CO + O
viscosity [mPa·s]
Details | 100 kPa | 101 kPa
293.15 K, x1 = 0.002 | – | 1.074
293.15 K, x1 = 0.004 | – | 1.155
293.15 K, x1 = 0.005 | – | 1.241
298.15 K, x1 = 0.002 | 0.976 | 0.9875
298.15 K, x1 = 0.004 | – | 1.065
298.15 K, x1 = 0.005 | – | 1.149
303.15 K, x1 = 0.002 | 0.873 | 0.8893
303.15 K, x1 = 0.004 | – | 0.9654
303.15 K, x1 = 0.005 | – | 1.047
308.15 K, x1 = 0.001805 | – | 0.784
308.15 K, x1 = 0.002 | 0.786 | 0.7922
308.15 K, x1 = 0.003683 | – | 0.864
308.15 K, x1 = 0.004 | – | 0.8716
308.15 K, x1 = 0.005 | – | 0.9524
308.15 K, x1 = 0.005432 | – | 0.934
308.15 K, x1 = 0.006317 | – | 0.966
308.15 K, x1 = 0.007218 | – | 1.012
308.15 K, x1 = 0.008098 | – | 1.063
313.15 K, x1 = 0.002 | 0.709 | 0.7014
313.15 K, x1 = 0.004 | – | 0.7822
313.15 K, x1 = 0.005 | – | 0.8636
318.15 K, x1 = 0.001802 | – | 0.601
318.15 K, x1 = 0.002729 | – | 0.621
318.15 K, x1 = 0.003613 | – | 0.642
318.15 K, x1 = 0.004521 | – | 0.67
318.15 K, x1 = 0.006298 | – | 0.725
318.15 K, x1 = 0.007249 | – | 0.757
318.15 K, x1 = 0.01074 | – | 0.885

CCCCCCC + CCCCO
viscosity [mPa·s]
Details | 298.15 K | 308.15 K
100 kPa, x2 = 0.1602 | 0.4667 | –
100 kPa, x2 = 0.3421 | 0.6085 | –
100 kPa, x2 = 0.5006 | 0.8545 | –
100 kPa, x2 = 0.6598 | 1.191 | –
100 kPa, x2 = 0.8398 | 1.747 | –
101.33 kPa, x2 = 0.077 | 0.421 | 0.3698
101.33 kPa, x2 = 0.1523 | 0.456 | 0.392
101.33 kPa, x2 = 0.2853 | 0.5468 | 0.4571
101.33 kPa, x2 = 0.4094 | 0.667 | 0.5432
101.33 kPa, x2 = 0.5024 | 0.787 | 0.6232
101.33 kPa, x2 = 0.6136 | 0.9824 | 0.7769
101.33 kPa, x2 = 0.7055 | 1.204 | 0.9444
101.33 kPa, x2 = 0.7866 | 1.453 | 1.136
101.33 kPa, x2 = 0.8595 | 1.751 | 1.363
101.33 kPa, x2 = 0.8998 | 1.942 | 1.515
101.33 kPa, x2 = 0.9352 | 2.144 | 1.666
101.33 kPa, x2 = 0.9675 | 2.342 | 1.821

CCCCCCCC + CO
298.15 K, 101.33 kPa
Details | viscosity [mPa·s]
x1 = 0.0147 | 0.553
x2 = 0.0367 | 0.536
x2 = 0.0682 | 0.547
x2 = 0.0725 | 0.548
x2 = 0.0933 | 0.555
x2 = 0.1159 | 0.563
x2 = 0.9531 | 0.556
x2 = 0.9687 | 0.554

CCCCCCCCCCCCCC + CCCCCCCCCCO
100 kPa, x1 = 0.3338
Details | viscosity [mPa·s]
298.2 K | 5.36
308.2 K | 3.89
318.2 K | 2.92

ClC(Cl)=C(Cl)Cl + c1ccncc1
298.15 K, 101 kPa
Details | viscosity [mPa·s]
x1 = 0.0296 | 0.8879
x1 = 0.1254 | 0.8794
x1 = 0.1862 | 0.875
x1 = 0.2246 | 0.8719
x1 = 0.2887 | 0.8657
x1 = 0.4448 | 0.8496
x1 = 0.5638 | 0.8411
x1 = 0.6271 | 0.837
x1 = 0.7214 | 0.8324
x1 = 0.842 | 0.8315
x1 = 0.9127 | 0.8331
x1 = 0.9559 | 0.8373

ClC(Cl)=C(Cl)Cl + C1CCOC1
303.15 K, 101 kPa
Details | viscosity [mPa·s]
x2 = 0.0667 | 0.7821
x2 = 0.1429 | 0.763
x2 = 0.2457 | 0.7362
x2 = 0.3692 | 0.7008
x2 = 0.4384 | 0.6795
x2 = 0.5309 | 0.6487
x2 = 0.6897 | 0.5914
x2 = 0.7605 | 0.5641
x2 = 0.8435 | 0.5312
x2 = 0.9213 | 0.4988

CN(C)C=O + Cc1ccccc1
Details | viscosity [mPa·s]
293.15 K, 101 kPa, x1 = 0.0501 | 0.592
293.15 K, 101 kPa, x1 = 0.1001 | 0.607
293.15 K, 101 kPa, x1 = 0.22 | 0.641
293.15 K, 101 kPa, x1 = 0.3122 | 0.668
293.15 K, 101 kPa, x1 = 0.4002 | 0.693
293.15 K, 101 kPa, x1 = 0.5002 | 0.721
293.15 K, 101 kPa, x1 = 0.6111 | 0.751
293.15 K, 101 kPa, x1 = 0.7003 | 0.775
293.15 K, 101 kPa, x1 = 0.8122 | 0.805
293.15 K, 101 kPa, x1 = 0.9002 | 0.828
298.15 K, 101.3 kPa, x1 = 0.1224 | 0.584
298.15 K, 101.3 kPa, x1 = 0.2414 | 0.612
298.15 K, 101.3 kPa, x1 = 0.3485 | 0.639
298.15 K, 101.3 kPa, x1 = 0.4031 | 0.654
298.15 K, 101.3 kPa, x1 = 0.5545 | 0.699
298.15 K, 101.3 kPa, x1 = 0.657 | 0.723
298.15 K, 101.3 kPa, x1 = 0.7413 | 0.742
298.15 K, 101.3 kPa, x1 = 0.8336 | 0.764
298.15 K, 101.3 kPa, x1 = 0.9129 | 0.781
303.15 K, 101.3 kPa, x1 = 0.1224 | 0.55
303.15 K, 101.3 kPa, x1 = 0.2414 | 0.576
303.15 K, 101.3 kPa, x1 = 0.3485 | 0.601
303.15 K, 101.3 kPa, x1 = 0.4031 | 0.615
303.15 K, 101.3 kPa, x1 = 0.5545 | 0.657
303.15 K, 101.3 kPa, x1 = 0.657 | 0.68
303.15 K, 101.3 kPa, x1 = 0.7413 | 0.698
303.15 K, 101.3 kPa, x1 = 0.8336 | 0.718
303.15 K, 101.3 kPa, x1 = 0.9129 | 0.735
303.15 K, 101.33 kPa, x1 = 0.1037 | 0.542
303.15 K, 101.33 kPa, x1 = 0.1731 | 0.556
303.15 K, 101.33 kPa, x1 = 0.2947 | 0.581
303.15 K, 101.33 kPa, x1 = 0.3985 | 0.602
303.15 K, 101.33 kPa, x1 = 0.4729 | 0.618
303.15 K, 101.33 kPa, x1 = 0.6004 | 0.645
303.15 K, 101.33 kPa, x1 = 0.7147 | 0.67
303.15 K, 101.33 kPa, x1 = 0.7974 | 0.688
303.15 K, 101.33 kPa, x1 = 0.8981 | 0.712
308.15 K, 101.3 kPa, x1 = 0.1224 | 0.518
308.15 K, 101.3 kPa, x1 = 0.2414 | 0.541
308.15 K, 101.3 kPa, x1 = 0.3485 | 0.565
308.15 K, 101.3 kPa, x1 = 0.4031 | 0.578
308.15 K, 101.3 kPa, x1 = 0.5545 | 0.617
308.15 K, 101.3 kPa, x1 = 0.657 | 0.638
308.15 K, 101.3 kPa, x1 = 0.7413 | 0.655
308.15 K, 101.3 kPa, x1 = 0.8336 | 0.674
308.15 K, 101.3 kPa, x1 = 0.9129 | 0.69
313.15 K, 101.3 kPa, x1 = 0.1224 | 0.49
313.15 K, 101.3 kPa, x1 = 0.2414 | 0.512
313.15 K, 101.3 kPa, x1 = 0.3485 | 0.534
313.15 K, 101.3 kPa, x1 = 0.4031 | 0.547
313.15 K, 101.3 kPa, x1 = 0.5545 | 0.584
313.15 K, 101.3 kPa, x1 = 0.657 | 0.604
313.15 K, 101.3 kPa, x1 = 0.7413 | 0.619
313.15 K, 101.3 kPa, x1 = 0.8336 | 0.638
313.15 K, 101.3 kPa, x1 = 0.9129 | 0.653
313.15 K, 101.33 kPa, x1 = 0.1037 | 0.491
313.15 K, 101.33 kPa, x1 = 0.1731 | 0.505
313.15 K, 101.33 kPa, x1 = 0.2947 | 0.522
313.15 K, 101.33 kPa, x1 = 0.3985 | 0.543
313.15 K, 101.33 kPa, x1 = 0.4729 | 0.56
313.15 K, 101.33 kPa, x1 = 0.6004 | 0.583
313.15 K, 101.33 kPa, x1 = 0.7147 | 0.604
313.15 K, 101.33 kPa, x1 = 0.7974 | 0.622
313.15 K, 101.33 kPa, x1 = 0.8981 | 0.643
